The assay deals with Pseudomonas putida (ATCC 31483). The assay is described as follows: Bacterial growth in growth medium containing ceftazidime hydrate (96-well plate, turbidity). More on the design: key to bacterial growth (turbidity): “+” indicates growth; “−” indicates no growth. It is filed as cell-based. As to conditions: overnight at 37° C. Here is the method:
Samples of growth media were prepared by dissolving a tablet of each composition in 1 liter of recovery media (modified Listeria Recovery Broth (MLRB), available from 3M Company; St. Paul, Minn.). The tablets dissolved within 4.5 minutes. A sample of growth media was prepared as a control by dissolving 10 mg of Ceftazidime hydrate powder (product number C3809-5G available from Sigma Aldrich; St. Louis, Mo.) in 1 liter of MLRB.
A bacterial suspension was prepared by inoculating a pure culture of Pseudomonas putida (ATCC 31483 obtained from ATCC, Manassas, Va.) into tryptic soy broth (BD™ Tryptic Soy Broth; Becton Dickinson; Sparks, Md.) and incubating at 37° C. The suspension was diluted 1:1,000 in SMB (Standard Methods Buffer; 3M Company; St. Paul, Minn.). The diluted suspension was further diluted 1:10,000-diluted in SMB growth medium containing ceftazidime concentrations shown in Table 10. Four duplicates of each sample were pipetted into a 96-well plate as follows: Growth Control with no Ceftazidime hydrate; an Undiluted Control with 10 micrograms Ceftazidime hydrate/microliter of the bacterial suspension; and each dilution of inoculated medium containing the concentration of ceftazidime hydrate shown in the Table 10. The 96-well plate was incubated overnight at 37° C. and examined visually for bacterial growth. Turbidity in the well indicated growth.

On to `CC(C)(O/N=C(\C(=O)N[C@@H]1C(=O)N2C(C(=O)[O-])=C(C[n+]3ccccc3)CS[C@H]12)c1csc(N)n1)C(=O)O` [Powder Control, Ceftazidime hydrate], for which the “bacterial growth (turbidity)” value (2.5 mcg CDH/microliter) is listed as “+”; the “bacterial growth (turbidity)” value (3.75 mcg CDH/microliter) was “+”; the “bacterial growth (turbidity)” value (5.0 mcg CDH/microliter) is “−”; the “bacterial growth (turbidity)” value (6.25 mcg CDH/microliter) was “−”; the “bacterial growth (turbidity)” value (7.5 mcg CDH/microliter) is given as “−”; the “bacterial growth (turbidity)” value (8.75 mcg CDH/microliter) is recorded as “−”. Further, the “bacterial growth (turbidity)” value (Undiluted Control - 10 mcg CDH/microliter) is on record as “−”. Besides, the “lowest concentration of ceftazidime hydrate showing no growth” value (delivered in tablet or powder) is 5 mcg/microliter of sample.

The record behind these values is patent US10378041B2, “Effervescent compositions and uses thereof” (3M INNOVATIVE PROPERTIES COMPANY, priority 2010, dated 2019).
